Columns and labels:
CDK1/Cyclin B1 = target: T1, CDK1/Cyclin B1 (Homo sapiens, UniProt P06493); assay: CDK1/Cyclin B1 enzymatic phosphorylation assay (Caliper mobility shift); type: biochemical; details: read-out: Enzyme CDK1/cyclin B1 IC50
T1 construct: GST; purchased BPS 40454
Method: (§1) Reactions proceeded until between 10% to 20% total peptides were phosphorylated at room temperature (25° C.) and were terminated with 35 mM 2,2′,2″,2′″-(ethane-1,2-diyldinitrilo)tetraacetic acid (EDTA). Product was detected using the Caliper mobility shift detection method where the phosphorylated peptide (product) and substrate were electrophoretically separated and measured. Percent activity was plotted against log concentration of compound and points to generate an apparent IC50.

CDK2/Cyclin E = target: T2, CDK2/Cyclin E (Homo sapiens, UniProt P24941); assay: CDK2/Cyclin E enzymatic phosphorylation assay (Caliper mobility shift); type: biochemical; details: read-out: Enzyme CDK2/cyclin E IC50; note: 1.0 mM ATP or ATP Km
T2 construct: purchased Eurofins 14-475
Method: as §1

T1 sequence (P06493 whole entry): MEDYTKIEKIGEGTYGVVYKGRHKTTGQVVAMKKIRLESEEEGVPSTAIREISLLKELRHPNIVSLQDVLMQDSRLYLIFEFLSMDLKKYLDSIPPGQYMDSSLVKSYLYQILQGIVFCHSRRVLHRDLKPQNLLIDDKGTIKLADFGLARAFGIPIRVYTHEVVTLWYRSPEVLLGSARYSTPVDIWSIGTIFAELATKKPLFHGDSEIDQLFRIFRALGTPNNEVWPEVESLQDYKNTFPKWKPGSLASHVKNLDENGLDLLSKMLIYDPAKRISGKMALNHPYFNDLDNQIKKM
T1 sequence (P14635 whole entry partner): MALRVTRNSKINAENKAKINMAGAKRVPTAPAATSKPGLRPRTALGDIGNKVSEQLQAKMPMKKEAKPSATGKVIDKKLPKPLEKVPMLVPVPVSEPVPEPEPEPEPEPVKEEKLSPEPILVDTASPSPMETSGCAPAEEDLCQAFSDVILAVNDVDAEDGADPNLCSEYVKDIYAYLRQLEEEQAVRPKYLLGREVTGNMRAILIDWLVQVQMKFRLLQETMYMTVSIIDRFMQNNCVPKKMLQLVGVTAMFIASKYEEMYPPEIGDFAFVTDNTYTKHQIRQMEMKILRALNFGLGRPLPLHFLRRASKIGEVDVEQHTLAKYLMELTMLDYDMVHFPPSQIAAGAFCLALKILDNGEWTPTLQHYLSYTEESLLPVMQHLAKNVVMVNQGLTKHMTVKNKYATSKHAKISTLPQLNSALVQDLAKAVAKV

Compound | IC50 (CDK1/Cyclin B1) | IC50 (CDK2/Cyclin E)
Cc1nc2cnn(CC3CCOCC3)c2nc1Nc1cc(C(C)C)[nH]n1 [Example 17, N-(5-isopropyl-1H-pyrazol-3-yl)-5-methyl-1-((tetrahydro-2H-pyran-4-yl)methyl)-1H-pyrazolo[3,4-b]pyrazin-6-amine] | 1650 nM | 14.8 nM
CC(C)c1cc(Nc2cnc3cnn(CC4CCOCC4)c3n2)n[nH]1 [Example 30, N-(5-isopropyl-1H-pyrazol-3-yl)-1-((tetrahydro-2H-pyran-4-yl)methyl)-1H-pyrazolo[3,4-b]pyrazin-6-amine] | 113 nM | 0.6 nM
C[C@@H](c1cccnc1)n1ncc2ncc(Nc3cc(C(F)F)[nH]n3)nc21 [Example 2, (S)-N-(5-(difluoromethyl)-1H-pyrazol-3-yl)-1-(1-(pyridin-3-yl)ethyl)-1H-pyrazolo[3,4-b]pyrazin-6-amine] | 6030 nM | 22.8 nM
CCc1cc(Nc2cnc3cnn([C@@H](C)c4cccnc4)c3n2)n[nH]1 [Example 32, (S)-N-(5-ethyl-1H-pyrazol-3-yl)-1-(1-(pyridin-3-yl)ethyl)-1H-pyrazolo[3,4-b]pyrazin-6-amine] | 465 nM | 1.9 nM
Cc1cc(Nc2cnc3cnn([C@@H](C)c4cccnc4)c3n2)n[nH]1 [Example 15, (S)-N-(5-methyl-1H-pyrazol-3-yl)-1-(1-(pyridin-3-yl)ethyl)-1H-pyrazolo[3,4-b]pyrazin-6-amine] | 5660 nM | 29.2 nM
Cc1nn(CC2CCOCC2)c2nc(Nc3cc(C4COC4)[nH]n3)cnc12 [Example 8, 3-methyl-N-(5-(oxetan-3-yl)-1H-pyrazol-3-yl)-1-((tetrahydro-2H-pyran-4-yl)methyl)-1H-pyrazolo[3,4-b]pyrazin-6-amine] | 2580 nM | 37.1 nM
CC[C@H]([C@H](C)O)n1ncc2ncc(Nc3cc(C(C)C)[nH]n3)nc21 (single isomer, unassigned) [Example 14, (2S,3R)-3-(6-((5-isopropyl-1H-pyrazol-3-yl)amino)-1H-pyrazolo[3,4-b]pyrazin-1-yl)pentan-2-ol or (2S,3S)-3-(6-((5-isopropyl-1H-pyrazol-3-yl)amino)-1H-pyrazolo[3,4-b]pyrazin-1-yl)pentan-2-ol] | 3130 nM | 23.9 nM
C[C@@H](c1cccnc1)n1ncc2ncc(Nc3cc(C4COC4)[nH]n3)nc21 [Example 33, (S)-N-(5-(oxetan-3-yl)-1H-pyrazol-3-yl)-1-(1-(pyridin-3-yl)ethyl)-1H-pyrazolo[3,4-b]pyrazin-6-amine] | 1420 nM | 6.4 nM
C[C@@H](c1cccnc1F)n1ncc2ncc(Nc3cc(C#N)[nH]n3)nc21 [Example 22, (S)-3-((1-(1-(2-fluoropyridin-3-yl)ethyl)-1H-pyrazolo[3,4-b]pyrazin-6-yl)amino)-1H-pyrazole-5-carbonitrile] | 3460 nM | 8.8 nM
Cc1nn(Cc2cccnc2)c2nc(Nc3cc(C4COC4)[nH]n3)cnc12 [Example 4, 3-methyl-N-(5-(oxetan-3-yl)-1H-pyrazol-3-yl)-1-(pyridin-3-ylmethyl)-1H-pyrazolo[3,4-b]pyrazin-6-amine] | 5000 nM | 36.3 nM
CC[C@@H]([C@H](C)O)n1ncc2ncc(Nc3cc(C(C)C)[nH]n3)nc21 (single isomer, unassigned) [Example 13, (2S,3S)-3-(6-((5-isopropyl-1H-pyrazol-3-yl)amino)-1H-pyrazolo[3,4-b]pyrazin-1-yl)pentan-2-ol or (2S,3R)-3-(6-((5-isopropyl-1H-pyrazol-3-yl)amino)-1H-pyrazolo[3,4-b]pyrazin-1-yl)pentan-2-ol] | 907 nM | 2.3 nM
C[C@@H](c1cccnc1Cl)n1ncc2ncc(Nc3cc(C#N)[nH]n3)nc21 [Example 24, (S)-3-((1-(1-(2-chloropyridin-3-yl)ethyl)-1H-pyrazolo[3,4-b]pyrazin-6-yl)amino)-1H-pyrazole-5-carbonitrile] | 3330 nM | 20.3 nM
c1nc2cnn(C[C@H]3[C@@H]4COC[C@@H]43)c2nc1Nc1cc(C2COC2)[nH]n1 [Example 16, 1-(((1R,5S,6s)-3-oxabicyclo[3.1.0]hexan-6-yl)methyl)-N-(5-(oxetan-3-yl)-1H-pyrazol-3-yl)-1H-pyrazolo[3,4-b]pyrazin-6-amine] | 1020 nM | 8.5 nM

More lines, now with the values ahead:

IC50 (CDK1/Cyclin B1) | IC50 (CDK2/Cyclin E) | Compound
1570 nM | 7.9 nM | CC(C)c1cc(Nc2cnc3cnn(C[C@@H](C)CO)c3n2)n[nH]1 [Example 60, (R)-3-(6-((5-isopropyl-1H-pyrazol-3-yl)amino)-1H-pyrazolo[3,4-b]pyrazin-1-yl)-2-methylpropan-1-ol]
1900 nM | 10.8 nM | c1cncc(Cn2ncc3ncc(Nc4cc(C5COC5)[nH]n4)nc32)c1 [Example 34, N-(5-(oxetan-3-yl)-1H-pyrazol-3-yl)-1-(pyridin-3-ylmethyl)-1H-pyrazolo[3,4-b]pyrazin-6-amine]
709 nM | 3 nM | Cc1cc(Nc2cnc3cnn([C@@H](C)c4cccnc4F)c3n2)n[nH]1 [Example 56, (S)-1-(1-(2-fluoropyridin-3-yl)ethyl)-N-(5-methyl-1H-pyrazol-3-yl)-1H-pyrazolo[3,4-b]pyrazin-6-amine]
1380 nM | 5.3 nM | Fc1ccccc1Cn1ncc2ncc(Nc3cc(C4COC4)[nH]n3)nc21 [Example 45, 1-(2-fluorobenzyl)-N-(5-(oxetan-3-yl)-1H-pyrazol-3-yl)-1H-pyrazolo[3,4-b]pyrazin-6-amine]
592 nM | 2.3 nM | C[C@@H](c1ccccc1)n1ncc2ncc(Nc3cc(C4COC4)[nH]n3)nc21 [Example 42, (S)-N-(5-(oxetan-3-yl)-1H-pyrazol-3-yl)-1-(1-phenylethyl)-1H-pyrazolo[3,4-b]pyrazin-6-amine]
509 nM | 3.5 nM | O[C@H]1CC[C@H](n2ncc3ncc(Nc4cc(C5COC5)[nH]n4)nc32)CC1 [Example 38, (1r,4r)-4-(6-((5-(oxetan-3-yl)-1H-pyrazol-3-yl)amino)-1H-pyrazolo[3,4-b]pyrazin-1-yl)cyclohexan-1-ol]
533 nM | 5.4 nM | CCc1cc(Nc2cnc3cnn(CC4CCOCC4)c3n2)n[nH]1 [Example 37, N-(5-ethyl-1H-pyrazol-3-yl)-1-((tetrahydro-2H-pyran-4-yl)methyl)-1H-pyrazolo[3,4-b]pyrazin-6-amine]
83.6 nM | 0.5 nM | c1nc2cnn(CC3CCOCC3)c2nc1Nc1cc(C2CC2)[nH]n1 [Example 36, N-(5-cyclopropyl-1H-pyrazol-3-yl)-1-((tetrahydro-2H-pyran-4-yl)methyl)-1H-pyrazolo[3,4-b]pyrazin-6-amine]
1060 nM | 7.9 nM | Fc1cccc(Cn2ncc3ncc(Nc4cc(C5COC5)[nH]n4)nc32)c1 [Example 46, 1-(3-fluorobenzyl)-N-(5-(oxetan-3-yl)-1H-pyrazol-3-yl)-1H-pyrazolo[3,4-b]pyrazin-6-amine]
2080 nM | 56 nM | CC(C)c1cc(Nc2cnc3cnn(CC4CCN(C)CC4)c3n2)n[nH]1 [Example 64, N-(5-isopropyl-1H-pyrazol-3-yl)-1-((1-methylpiperidin-4-yl)methyl)-1H-pyrazolo[3,4-b]pyrazin-6-amine]
